According to patent US12545677B2, “Compounds useful as factor XIa inhibitors” (JANSSEN PHARMACEUTICA NV, priority 2020, dated 2026):

Target: Factor XIa (Homo sapiens, UniProt P03951)
Experiment: Factor XIa inhibition assay using fluorophore-quencher pair peptide substrate
Format: biochemical
Text: Biological Example 1: Factor XIa Inhibition Assay
Using Fluorophore-quencher Pair Peptide Substrate
A fluorescence intensity-based assay was used to monitor inhibition of Factor XIa. The peptide substrate, 5Fam-[…]-K5Tamra (purchased from New England Peptide) was chosen based on the […]. Conversion of zymogen FIX to its activated form, FIXa, occurs by proteolytic cleavage by FXIa at two sites, Arg146 and Arg180. The custom peptide used in this assay was based on the Arg146 cleavage site. The peptide substrate was designed with a fluorophore-quencher pair, where the fluorescence is quenched until FXIa cleaves the 8-mer peptide after the Arg residue.
Factor XIa FLINT assay was used with the following 5Fam-[…]-K5Tamra assay buffer: 50 mM Tris, pH 7.5, 100 mM NaCl, 5 mM CaCl2, 0.1 mg/mL BSA, 0.03% CHAPS was used. Assay buffer was prepared by mixing all ingredients fresh. 2×5Fam-[…]-K5Tamra peptide substrate was first prepared in 100% DMSO, then diluted 10 mM to 3 mM in 100% DMSO. Assay buffer was then added directly to the 3 mM stock of substrate to prepare the 30 μM 2× working concentration (15 μM final concentration). The 2× Factor XIa stock solution was prepared by diluting 6.562 μM stock in 1× assay buffer for a 200 pM working stock solution (100 pM final concentration).
Test compound(s) were run in an 11-point, 3-fold serial dilution with a final top compound concentration of […]. Final DMSO in assay was 2% DMSO. FXIa and compound were pre-incubated for 30 minutes and substrate was then added to initiate the reaction. The assay was linear using 100 pM FXIa greater than 30 minutes. More specifically, the assay was run as follows: • 100 nL of 1 mM test compound was dispensed into a black 384-well non-binding Greiner BioOne 784900 plate for 10 μM final concentration with 1% DMSO final concentration; • 5 μL of 1× assay buffer was dispensed to column 24 (low control) and 5 μL 2× Factor XIa solution was dispensed to columns 1-23 (column 23 high control); • the plate was centrifuged with a “cover” plate at 500 rpm for 1 min • the plate was pre-incubated for 30 minutes at room temperature with plate covered; • 5 μL of 2× 5Fam-[…]-K5Tamra peptide substrate was dispensed into the entire plate, columns 1-24; • the plate was centrifuged with a cover plate at 500 rpm for 1 min; • the plate was read kinetically monitoring fluorescence intensity on the BMG PHERAStar at room temperature, using fluorescence module F1 485 mm/520 mm.
Percent inhibition (IC50) curves were generated per compound tested, and data was analyzed using a 4-parameter logistic fit using GeneData Screener. […]

Chain of Factor XIa (P03951 388-625 limits assumed): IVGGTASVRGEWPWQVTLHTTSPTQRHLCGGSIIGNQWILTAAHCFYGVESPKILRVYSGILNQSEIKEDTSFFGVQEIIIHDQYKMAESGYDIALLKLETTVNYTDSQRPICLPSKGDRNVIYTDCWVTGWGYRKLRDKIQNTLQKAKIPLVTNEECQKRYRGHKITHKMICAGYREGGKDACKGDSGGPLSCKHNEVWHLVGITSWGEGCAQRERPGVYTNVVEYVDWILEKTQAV
Chain of Factor XIa (P03951 19-387 partner limits assumed): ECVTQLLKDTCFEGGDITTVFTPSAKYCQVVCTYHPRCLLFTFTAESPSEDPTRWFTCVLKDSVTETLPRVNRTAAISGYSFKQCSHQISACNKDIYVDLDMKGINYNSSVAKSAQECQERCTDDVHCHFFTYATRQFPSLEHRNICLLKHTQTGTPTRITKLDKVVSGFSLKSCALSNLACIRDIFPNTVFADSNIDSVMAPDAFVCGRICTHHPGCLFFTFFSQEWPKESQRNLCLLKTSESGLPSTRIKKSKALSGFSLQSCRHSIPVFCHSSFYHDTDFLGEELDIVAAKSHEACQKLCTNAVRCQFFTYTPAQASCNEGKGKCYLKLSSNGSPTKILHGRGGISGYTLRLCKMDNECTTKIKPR

- IC50: 0.3 nM
Structure (SMILES): O=C(O)c1nccc(-c2cnc([C@@H]3CC[C@@H]4CC(c5c(-n6cnnn6)ccc(Cl)c5F)=CC(=O)N43)[nH]2)c1F [Compound of formula (II-A), 4-(2-((3S,8aR)-7-(3-chloro-2-fluoro-6-(1H-tetrazol-1-yl)phenyl)-5-oxo-1,2,3,5,8,8a-hexahydroindolizin-3-yl)-1H-imidazol-5-yl)-3-fluoropicolinic acid]
